#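 Tested at 5 concentrations; 48 h exposure; 96-well plates; endpoints linearly interpolated, else capped at highest concentration. The concentration for 50% growth inhibition is given as GI50. At the TGI there is no net growth.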
# Key:
# Experiment in all cases: inhibition of tumour cell growth, NCI panel, 48 h
# [1] = system: MALME-3M melanoma
# [2] = system: SR leukemia
# [3] = system: SF-268 CNS
# [4] = system: U251 CNS
# [5] = system: OVCAR-8 ovarian
# [6] = system: HS 578T breast
# [7] = system: MDA-MB-231 breast
# [8] = system: HCT-116 colon
# [9] = system: DU-145 prostate
# [10] = system: CCRF-CEM leukemia
# [11] = system: CAKI-1 renal
# [12] = system: SK-MEL-28 melanoma
# [13] = system: KM12 colon
# [14] = system: T-47D breast
# [15] = system: NCI/ADR-RES ovarian
# [16] = system: MDA-MB-435
# [17] = system: A549 NSCLC
# [18] = system: MCF7 breast
# [19] = system: COLO 205 colon
# [20] = system: NCI-H522 lung
# [21] = system: MOLT-4 leukemia
# [22] = system: EKVX NSCLC
# [23] = system: NCI-H226 lung
# [24] = system: HL-60(TB) leukemia
# [25] = system: NCI-H460 lung
# [26] = system: SF-539 CNS
# [27] = system: SK-MEL-2 melanoma
# [28] = system: HCT-15 colon
# [29] = system: NCI-H23 lung
# [30] = system: ACHN renal
# [31] = system: 786-0 renal
# [32] = system: SK-MEL-5 melanoma
# [33] = system: UO-31 renal
# [34] = system: A498 renal
# [35] = system: OVCAR-4 ovarian
# [36] = system: RXF 393 renal
# [37] = system: SW-620 colon
# [38] = system: HCC-2998 colon
# [39] = system: SNB-19 CNS
# [40] = system: UACC-62 melanoma
# [41] = system: HOP-62 NSCLC
# [42] = system: TK-10 renal
# [43] = system: RPMI-8226 leukemia
# [44] = system: LOX IMVI melanoma
# [45] = system: UACC-257 melanoma
# [46] = system: SN12C renal
# [47] = system: SF-295 CNS
# [48] = system: SNB-75 CNS
# [49] = system: HT29 colon
# [50] = system: BT-549 breast
# [51] = system: OVCAR-3 ovarian
# [52] = system: HOP-92 NSCLC
# [53] = system: OVCAR-5 ovarian
# [54] = system: SK-OV-3 ovarian
# [55] = system: PC-3 prostate
smiles,measurement,setting,value
O=C1C(=O)c2c(ccc3ccccc23)-c2ccccc21,GI50,[1],1.63 µM
same,TGI,[1],3.44 µM
same,GI50,[2],2.69 µM
same,TGI,[2],> 100 µM
same,GI50,[3],1.77 µM
same,TGI,[3],5.73 µM
same,GI50,[4],1.67 µM
same,TGI,[4],3.56 µM
same,GI50,[5],2.11 µM
same,TGI,[5],7.98 µM
same,GI50,[6],2.05 µM
same,TGI,[6],6 µM
same,GI50,[7],1.63 µM
same,TGI,[7],8.08 µM
same,GI50,[8],0.384 µM
same,TGI,[8],2.87 µM
same,GI50,[9],1.4 µM
same,TGI,[9],2.73 µM
same,GI50,[10],2.17 µM
same,TGI,[10],> 100 µM
same,GI50,[11],2.7 µM
same,TGI,[11],> 100 µM
same,GI50,[12],1.73 µM
same,TGI,[12],3.67 µM
same,GI50,[13],1.6 µM
same,TGI,[13],2.99 µM
same,GI50,[14],1.75 µM
same,TGI,[14],3.96 µM
same,GI50,[15],1.19 µM
same,TGI,[15],5.88 µM
same,GI50,[16],1.59 µM
same,TGI,[16],3.52 µM
same,GI50,[17],2.83 µM
same,TGI,[17],8.3 µM
same,GI50,[18],1.53 µM
same,TGI,[18],3.48 µM
same,GI50,[19],2.24 µM
same,TGI,[19],6.55 µM
same,GI50,[20],1.32 µM
same,TGI,[20],3.13 µM
same,GI50,[21],2.37 µM
same,TGI,[21],6.83 µM
same,GI50,[22],1.98 µM
same,TGI,[22],5.39 µM
same,GI50,[23],2.02 µM
same,TGI,[23],5.02 µM
same,GI50,[24],2.83 µM
same,TGI,[24],5.85 µM
same,GI50,[25],1.6 µM
same,TGI,[25],3.08 µM
same,GI50,[26],1.89 µM
same,TGI,[26],4.07 µM
same,GI50,[27],1.73 µM
same,TGI,[27],3.78 µM
same,GI50,[28],1.02 µM
same,TGI,[28],6.43 µM
same,GI50,[29],1.76 µM
same,TGI,[29],4.63 µM
same,GI50,[30],2.74 µM
same,TGI,[30],> 100 µM
same,GI50,[31],3.13 µM
same,TGI,[31],> 100 µM
same,GI50,[32],1.5 µM
same,TGI,[32],2.82 µM
same,GI50,[33],2.39 µM
same,TGI,[33],> 100 µM
same,GI50,[34],10.4 µM
same,TGI,[34],26 µM
same,GI50,[35],1.21 µM
same,TGI,[35],2.5 µM
same,GI50,[36],1.68 µM
same,TGI,[36],3.22 µM
same,GI50,[37],1.96 µM
same,TGI,[37],4.23 µM
same,GI50,[38],2.65 µM
same,TGI,[38],7.75 µM
same,GI50,[39],2.43 µM
same,TGI,[39],7.97 µM
same,GI50,[40],1.57 µM
same,TGI,[40],3.38 µM
same,GI50,[41],1.9 µM
same,TGI,[41],4.56 µM
same,GI50,[42],2.17 µM
same,TGI,[42],7.54 µM
same,GI50,[43],0.752 µM
same,TGI,[43],5.26 µM
same,GI50,[44],1.38 µM
same,TGI,[44],3.93 µM
same,GI50,[45],1.74 µM
same,TGI,[45],4.07 µM
same,GI50,[46],1.6 µM
same,TGI,[46],3.31 µM
same,GI50,[47],1.92 µM
same,TGI,[47],4.6 µM
same,GI50,[48],1.83 µM
same,TGI,[48],4.03 µM
same,GI50,[49],2.52 µM
same,TGI,[49],6.21 µM
same,GI50,[50],2.05 µM
same,TGI,[50],4.62 µM
same,GI50,[51],0.25 µM
same,TGI,[51],0.713 µM
same,GI50,[52],1.91 µM
same,TGI,[52],5.52 µM
same,GI50,[53],2.54 µM
same,TGI,[53],7.45 µM
same,GI50,[54],2.05 µM
same,TGI,[54],5.06 µM
same,GI50,[55],1.81 µM
same,TGI,[55],6.25 µM
